Measured values reported in patent US20240188569A1, “NEW YEAST STRAIN AND ITS USES FOR THE CONTROL OF PHYTOPATHOGENS” (AGROVENTURES LLC, priority 2021, published 2024).
Converted amounts (≈) assume the structure as drawn.

System: PT22AV
Test: Minimum inhibitory concentration of fungicides in NYDA agar
Details: for Minimum inhibitory concentration: fungicide against PT22AV, incorporated in NYDA agar; for Resistance level: resistance level of PT22AV to the fungicide; for MIC: Papiliotrema terrestris, read-out: Minimum inhibitory concentration

`CO/C=C(/C(=O)OC)c1ccccc1Oc1cc(Oc2ccccc2C#N)ncn1` [Azoxystrobin] was tested, and the Minimum inhibitory concentration was 1000 mg/L (≈ 2.48 mM) and the Resistance level was “Resistant”.

For `CCCCNC(=O)n1c(NC(=O)OC)nc2ccccc21` [Benomyl], the MIC was 1000 µg/mL (≈ 3.44 mM) and the Resistance level was “Resistant”.

With `COC(=O)Nc1nc2ccccc2[nH]1` [Carbendazim] the MIC was 1000 µg/mL (≈ 5.23 mM) and the Resistance level was “Resistant”.

`[Cl-].[Cu+2].[Cu+2].[OH-].[OH-].[OH-]` [Copper oxychloride] was tested, and the Minimum inhibitory concentration was 500 mg/L and the Resistance level was “Resistant”.

For `N#Cc1c[nH]cc1-c1cccc2c1OC(F)(F)O2` [Fludioxonil], the MIC was 1000 µg/mL (≈ 4.03 mM).

`C=CCOC(Cn1ccnc1)c1ccc(Cl)cc1Cl` (stereo not drawn) [Imazalil] was tested, and the MIC was 300 µg/mL (≈ 1.01 mM) and the Resistance level was “Sensitive”.

`CCCC(Cn1cncn1)c1ccc(Cl)cc1Cl` (stereo not drawn) [Penconazol] was tested, and the MIC was 200 µg/mL (≈ 0.704 mM) and the Resistance level was “Sensitive”.

With `CC12CC1(C)C(=O)N(c1cc(Cl)cc(Cl)c1)C2=O` (stereo not drawn) [Procymidone] the MIC was 1000 µg/mL (≈ 3.52 mM) and the Resistance level was “Resistant”.

For `S1SSSSSSS1` [Sulfur], the MIC was 2000 µg/mL (≈ 7.8 mM) and the Resistance level was “Resistant”.

For `CC(C)(C)C(O)(CCc1ccc(Cl)cc1)Cn1cncn1` (stereo not drawn) [Tebuconazole], the MIC was 100 µg/mL (≈ 0.325 mM) and the Resistance level was “Sensitive”.

In the case of `c1ccc2[nH]c(-c3cscn3)nc2c1` [Thiabendazole], the MIC is reported as 1000 µg/mL (≈ 4.97 mM) and the Resistance level is reported as “Resistant”.

For `CON=C(C(=O)OC)c1ccccc1CON=C(C)c1cccc(C(F)(F)F)c1` [Trifloxystrobin], the MIC was 1000 µg/mL (≈ 2.45 mM) and the Resistance level was “Resistant”.

For `C=CC1(C)OC(=O)N(c2cc(Cl)cc(Cl)c2)C1=O` (stereo not drawn) [Vinclozolin], the MIC was 1000 µg/mL (≈ 3.5 mM) and the Resistance level was “Resistant”.

Mancozeb was tested, and the Minimum inhibitory concentration was 300 mg/L and the Resistance level was “Sensitive”.
